Source: patent US20250298027A1, “METHOD OF EVALUATING SMALL MOLECULE DISTRIBUTION USING TELLUROPHENE ANALOGUES” (THE GOVERNING COUNCIL OF THE UNIVERSITY OF TORONTO, priority 2022, published 2025)

Test system: HL-60 cells
Test: Competitive binding / cell labelling by mass cytometry (CyTOF) in HL-60 cells
Format: cell-based
Description: To determine if cellular labelling with 1 was dependent on the presence of Top2-DNA binding sites a competitive binding MC experiment was carried out using Teniposide. HL-60 cells were treated with teniposide (10 μM) for two hours to saturate intracellular Top2-DNA ternary complexes with an unlabelled ligand, next 1 (2 or 10 μM) was introduced into the cell media and the suspension was gently mixed. After two hours, cells were harvested and washed three times with PBS. Cells were then fixed and permeabilized, followed by DNA staining with Ir-intercalator. Cell pellets were analyzed by MC for ^130Te content (FIG. 6).
Additionally, co-incubation experiments were conducted where HL-60 cells were treated with a cocktail of 1 (2 μM) and either 2, 10, or 20 μM teniposide (FIG. 6B). […] Without wishing to be bound by theory, it is hypothesized that the lack of competitive labelling observed in these experiments may be due to a combination of inhibition of Top2 and a considerable degree of non-specific binding with other cellular components. Several reports have documented the non-specific accumulation of etoposide and teniposide via oxidation catalyzed by cytochrome P450-dependent monooxygenases, peroxidases and tyrosinase enzymes. […] It is also plausible these reactive species modify other intracellular proteins, thus contributing to drug accumulation inside cells, but in a promiscuous and irreversible manner. […] In this case, the non-specific binding may dominate the target binding of teniposide, and likely its analogue Te-teniposide 1.
CYTOF® labelling: For pre-saturation experiment, 3×10^6 HL-60 cells (5×10^5 cells/mL) were incubated with appropriate teniposide concentration for 2 hours at 37° C. in a humidified atmosphere of 5% CO2 in air. Compound 1 was pipetted into the cell suspension and gently mixed. Cells were further incubated for 2 hours and then centrifuged for 6 min at 300×g, and the media was aspirated. For controls, HL-60 cells were treated with teniposide or compound 1 for 4 hours consecutively. […] Samples were then injected into the CYTOF® Helios™ and analyzed.

Question: `COc1cc([C@@H]2c3cc4c(cc3[C@@H](OC3OC5COC(c6ccc[te]6)OC5C(O)C3O)[C@H]3COC(=O)C23)OCO4)cc(OC)c1O` (stereo partly drawn) [Compound 1, Tellurium-labelled teniposide] was tested. Which “competition for Top2 in co-incubation” value (1 (2 μM) with 2, 10 or 20 μM teniposide) did it give?
Answer: Its value is “no competition”.

Question: And the “cell labelling (^130Te) by MC” value (2 and 10 μM)?
Answer: Its value is “readily detected”.

Question: And the “reduction of ^130Te signal in cells pretreated with unlabeled teniposide” value (teniposide 10 μM for two hours, then 1 at 2 or 10 μM for two hours)?
Answer: Its value is “not observed”.
